pEC50: −log10 of the molar value. Read-outs that look alike come from different tables or passages of the source.
Target: T1, GK (glucokinase, residues 12-465) (Homo sapiens, UniProt P35557)
T1 construct: I.D. No. 1 corresponds to residues 12-465 of glucokinase; made in house; host or cells: DH10b-T1r E. coli
T1 sequence (P35557 with tags, fused parts or gaps isoform P35557-2): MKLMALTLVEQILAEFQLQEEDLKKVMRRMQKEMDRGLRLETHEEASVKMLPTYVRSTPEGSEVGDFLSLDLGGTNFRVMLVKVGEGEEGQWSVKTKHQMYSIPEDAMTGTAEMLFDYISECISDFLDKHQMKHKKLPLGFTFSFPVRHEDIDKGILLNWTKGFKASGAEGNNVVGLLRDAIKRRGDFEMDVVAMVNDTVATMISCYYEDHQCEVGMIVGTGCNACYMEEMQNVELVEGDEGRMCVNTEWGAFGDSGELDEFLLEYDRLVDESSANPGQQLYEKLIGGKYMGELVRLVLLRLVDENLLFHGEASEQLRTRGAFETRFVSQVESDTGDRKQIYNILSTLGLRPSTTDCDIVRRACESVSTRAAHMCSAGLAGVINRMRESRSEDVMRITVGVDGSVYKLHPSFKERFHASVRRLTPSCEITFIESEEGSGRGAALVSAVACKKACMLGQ
Assay: enzymatic glucokinase activity assay (ATP consumption, KinaseGlo luminescence)
Type: biochemical
Details: 5 μM ATP, 5 mM Glucose, reported as bins; for pEC50: Kact = concentration that displays 50% of the maximal increase in GK activity, 60 min, room temperature, read-out: pKact
In short: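 E. coli-expressed recombinant GK purified by two anion-exchange steps. Reaction in 25 mM Hepes pH 7.2, 10 mM MgCl2, 1 mM DTT, 5 μM ATP, 5 mM glucose, 2% DMSO, 60 min at room temperature. ATP consumption quantified by KinaseGlo luminescence; pKact and % ACTmax derived by non-linear curve fitting.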

[1] = read-out: % ACTmax, calculated maximal gain in GK enzyme activity at a saturating concentration of the compound
[2] = calculated maximal gain in GK enzyme activity at a saturating concentration of the compound, read-out: % ACTmax

| SMILES | pEC50 | Emax [1] [%] | Emax [2] [%] |
| --- | --- | --- | --- |
| O=C(Nc1ncc(Cl)s1)C(CC1CCOCC1)n1cc(S(=O)(=O)C2CC2)cn1 (stereo not shown) [Compound 4, N-(5-chlorothiazol-2-yl)-2-(4-(cyclopropylsulfonyl)-1H-pyrazol-1-yl)-3-(tetrahydro-2H-pyran-4-yl)propanamide] | 4.90 to 5.40 | 101 to 105 |  |
| O=C(Nc1ncc(Cl)s1)[C@@H](CC1CCOCC1)n1ncc2c(S(=O)(=O)C3CC3)cccc21 [Compound 63, (R)-N-(5-chlorothiazol-2-yl)-2-(4-(cyclopropylsulfonyl)-1H-indazol-1-yl)-3-(tetrahydro-2H-pyran-4-yl)propanamide] | 4.90 to 5.40 |  | ≥ 111 |
| O=C(Nc1ncc(Cl)s1)[C@@H](CC1CCOCC1)n1cc(S(=O)(=O)C2CC2)cn1 [Compound 40, (R)-N-(5-chlorothiazol-2-yl)-2-(4-(cyclopropylsulfonyl)-1H-pyrazol-1-yl)-3-(tetrahydro-2H-pyran-4-yl)propanamide] | ≤ 4.80 |  | ≤ 90 |
| COc1cc(S(=O)(=O)C2CC2)c2cnn(C(CC3CCOCC3)C(=O)Nc3cnccn3)c2c1 (stereo not shown) [Compound 92, 2-(4-(cyclopropylsulfonyl)-6-methoxy-1H-indazol-1-yl)-N-(pyrazin-2-yl)-3-(tetrahydro-2H-pyran-4-yl)propanamide] | 4.90 to 5.40 |  | ≤ 90 |
| O=C(Nc1cnccn1)C(CC1CCOCC1)n1ncc2c(S(=O)(=O)C3CC3)cc(F)cc21 (stereo not shown) [Compound 103, 2-(4-(cyclopropylsulfonyl)-6-fluoro-1H-indazol-1-yl)-N-(pyrazin-2-yl)-3-(tetrahydro-2H-pyran-4-yl)propanamide] | 5.50 to 5.80 |  | 101 to 105 |
| N#Cc1cc(S(=O)(=O)C2CC2)c2cnn(C(CC3CCOCC3)C(=O)Nc3cnccn3)c2c1 (stereo not shown) [Compound 100, 2-(6-cyano-4-(cyclopropylsulfonyl)-1H-indazol-1-yl)-N-(pyrazin-2-yl)-3-(tetrahydro-2H-pyran-4-yl)propanamide] | 5.90 to 6.40 |  | ≤ 90 |
| Cn1ccc(NC(=O)C(CC2CCOCC2)n2ncc3c(S(=O)(=O)C4CC4)cc(F)cc32)n1 (stereo not shown) [Compound 104, 2-(4-(cyclopropylsulfonyl)-6-fluoro-1H-indazol-1-yl)-N-(1-methyl-1H-pyrazol-3-yl)-3-(tetrahydro-2H-pyran-4-yl)propanamide] | 5.50 to 5.80 |  | 90 to 100 |
| O=C(Nc1cnccn1)C(CC1CCOCC1)n1cc2c(S(=O)(=O)C3CC3)c(F)ccc2n1 (stereo not shown) [Compound 156, 2-(4-(cyclopropylsulfonyl)-5-fluoro-2H-indazol-2-yl)-N-(pyrazin-2-yl)-3-(tetrahydro-2H-pyran-4-yl)proanamide] | ≥ 6.50 |  | 101 to 105 |
| COc1ccc2c(cnn2[C@@H](CC2CCOCC2)C(=O)Nc2ccn(C)n2)c1S(=O)(=O)C1CC1 [Compound 109, (S)-2-(4-(cyclopropylsulfonyl)-5-methoxy-1H-indazol-1-yl)-N-(1-methyl-1H-pyrazol-3-yl)-3-(tetrahydro-2H-pyran-4-yl)propanamide] | ≥ 6.50 |  | 101 to 105 |
| O=C1CC[C@H](C[C@H](C(=O)Nc2ncc(F)s2)n2ncc3c(S(=O)(=O)C4CC4)cc(Cl)cc32)C1 [Compound 78, (R)-2-(6-chloro-4-(cyclopropylsulfonyl)-1H-indazol-1-yl)-N-(5-fluorothiazol-2-yl)-3-((R)-3-oxocyclopentyl)propanamide] | 5.50 to 5.80 |  | 90 to 100 |
| O=C(Nc1cccc(F)n1)C(CC1CCOCC1)n1ncc2c(S(=O)(=O)C3CC3)cccc21 (stereo not shown) [Compound 147, 2-(4-(cyclopropylsulfonyl)-1H-indazol-1-yl)-N-(6-fluoropyridin-2-yl)-3-(tetrahydro-2H-pyran-4-yl)propanamide] | 5.50 to 5.80 |  | ≥ 111 |
| O=C(Nc1ncc(F)s1)C(CC1CCCC1)n1cc(S(=O)(=O)C2CC2)cn1 (stereo not shown) [Compound 34, 3-cyclopentyl-2-(4-(cyclopropylsulfonyl)-1H-pyrazol-1-yl)-N-(5-fluorothiazol-2-yl)propanamide] | 5.50 to 5.80 |  | ≥ 111 |
| O=C1CC[C@H](C[C@H](C(=O)Nc2cnccn2)n2ncc3c(S(=O)(=O)C4CC4)cccc32)C1 [Compound 75, (R)-2-(4-(cyclopropylsulfonyl)-1H-indazol-1-yl)-3-((R)-3-oxocyclopentyl)-N-(pyrazin-2-yl)propanamide] | 5.90 to 6.40 |  | 90 to 100 |
| CC(C)(C)S(=O)(=O)c1cnn([C@@H](CC2CCOCC2)C(=O)Nc2ncc(F)s2)c1 [Compound 53, (S)-2-(4-(tert-butylsulfonyl)-1H-pyrazol-1-yl)-N-(5-fluorothiazol-2-yl)-3-(tetrahydro-2H-pyran-4-yl)propanamide] | ≤ 4.80 |  | ≤ 90 |
| O=C1CC[C@@H](C[C@@H](C(=O)Nc2ncc(F)s2)n2cc(S(=O)(=O)C3CC3)cn2)C1 [Compound 55, (S)-2-(4-(cyclopropylsulfonyl)-1H-pyrazol-1-yl)-N-(5-fluorothiazol-2-yl)-3-((S)-3-oxocyclopentyl)propanamide] | 4.90 to 5.40 |  | ≤ 90 |
| O=C(Nc1ncc(Cl)s1)C(CC1CCOCC1)n1ncc2cc(S(=O)(=O)C3CC3)ccc21 (racemic) [Compound 10, N-(5-chlorothiazol-2-yl)-2-(5-(cyclopropylsulfonyl)-1H-indazol-1-yl)-3-(tetrahydro-2H-pyran-4-yl)propanamide] | 5.50 to 5.80 |  | ≥ 111 |
| O=C1CCC(CC(C(=O)Nc2ncc(F)s2)n2cc(S(=O)(=O)C3CC3)cn2)C1 (stereo not shown) [Compound 50, 2-(4-(cyclopropylsulfonyl)-1H-pyrazol-1-yl)-N-(5-fluorothiazol-2-yl)-3-(3-oxocyclopentyl)propanamide] | ≤ 4.80 |  | ≤ 90 |
| O=C(Nc1ncc(F)s1)C(CC1CCOCC1)n1ncc2c(S(=O)(=O)C3CC3)ccnc21 (stereo not shown) [Compound 127, 2-(4-(cyclopropylsulfonyl)-1H-pyrazolo[3,4-b]pyridin-1-yl)-N-(5-fluorothiazol-2-yl)-3-(tetrahydro-2H-pyran-4-yl)propanamide] | ≥ 6.50 |  | 101 to 105 |
| COc1cc(S(=O)(=O)C2CC2)c2cnn([C@@H](CC3CCOCC3)C(=O)Nc3ncc(F)s3)c2c1 [Compound 128, (S)-2-(4-(cyclopropylsulfonyl)-6-methoxy-1H-indazol-1-yl)-N-(5-fluorothiazol-2-yl)-3-(tetrahydro-2H-pyran-4-yl)propanamide] | ≥ 6.50 |  | 90 to 100 |
| O=C(Nc1ncc(F)s1)[C@@H](CC1CCOCC1)n1ncc2c(S(=O)(=O)C3CC3)cccc21 [Compound 68, (R)-2-(4-(cyclopropylsulfonyl)-1H-indazol-1-yl)-N-(5-fluorothiazol-2-yl)-3-(tetrahydro-2H-pyran-4-yl)propanamide] | 4.90 to 5.40 |  | 101 to 105 |
| O=C1CC[C@H](C[C@@H](C(=O)Nc2ncc(F)s2)n2cc(S(=O)(=O)C3CC3)cn2)C1 [Compound 54, (S)-2-(4-(cyclopropylsulfonyl)-1H-pyrazol-1-yl)-N-(5-fluorothiazol-2-yl)-3-((R)-3-oxocyclopentyl)propanamide] | 4.90 to 5.40 |  | ≤ 90 |
| O=C(Nc1ncc(F)s1)C(CC1CCOCC1)n1ncc2c(S(=O)(=O)C3CC3)cc(Cl)cc21 (stereo not shown) [Compound 121, 2-(6-chloro-4-(cyclopropylsulfonyl)-1H-indazol-1-yl)-N-(5-fluorothiazol-2-yl)-3-(tetrahydro-2H-pyran-4-yl)propanamide] | ≥ 6.50 |  | 90 to 100 |
| O=C(Nc1ncc(F)s1)C(CC1CCOCC1)n1ncc2c(S(=O)(=O)C3CC3)c(OC(F)F)ccc21 (stereo not shown) [Compound 87, 2-(4-(cyclopropylsulfonyl)-5-(difluoromethoxy)-1H-indazol-1-yl)-N-(5-fluorothiazol-2-yl)-3-(tetrahydro-2H-pyran-4-yl)propanamide] | 5.50 to 5.80 |  | 90 to 100 |
| Nc1cc(S(=O)(=O)C2CC2)c2cnn([C@@H](CC3CCOCC3)C(=O)Nc3ncc(F)s3)c2n1 [Compound 112, (S)-2-(6-amino-4-(cyclopropylsulfonyl)-1H-pyrazol[3,4-b]pyridin-1-yl)-N-(5-fluorothiazol-2-yl)-3-(tetrahydro-2H-pyran-4-yl)propanamide] | ≥ 6.50 | 106 to 110 |  |
| O=C(Nc1ncc(Cl)s1)[C@H](CC1CCOCC1)n1cc(S(=O)(=O)C2CC2)cn1 [Compound 42, (S)-N-(5-chlorothiazol-2-yl)-2-(4-(cyclopropylsulfonyl)-1H-pyrazol-1-yl)-3-(tetrahydro-2H-pyran-4-yl)propanamide] | 5.50 to 5.80 |  | ≥ 111 |
| COc1ccc2c(cnn2[C@H](CC2CCOCC2)C(=O)Nc2cnccn2)c1S(=O)(=O)C1CC1 [Compound 93, (R)-2-(4-(cyclopropylsulfonyl)-5-methoxy-1H-indazol-1-yl)-N-(pyrazin-2-yl)-3-(tetrahydro-2H-pyran-4-yl)propanamide] | ≤ 4.80 |  | ≤ 90 |

— patent US8563730B2, “Pyrazole and fused pyrazole glucokinase activators” (Takeda San Diego, Inc., priority 2008, dated 2013)
